From paper PMC11475369, “Exploring the Potential of Synthetic Cannabinoids: Modulation of Biological Activity of Normal and Cancerous Human Colon Epithelial Cells” (Cells, 2024)
Values after ≈ are worked out from the molar mass of the structure shown. Values joined by “and” are separate entries in the source; they are usually repeats but may differ in a detail not shown here. Identical values can stand only once.

Experiments:
[1] = system: CCD 841 CoTr cells; assay: Neutral Red (NR) uptake assay, viability of CCD 841 CoTr cells; format: cell-based; settings: Homo sapiens; CCD 841 CoTr colon normal cells, 24 h incubation
Protocol: (§1) The HT29 cell line (ATCC no. HTB-38) (human colon adenocarcinoma) was used in the present study. Cells were cultivated in RPMI 1640 culture medium with 10% fetal calf serum (FCS) (GibcoTM, Paisley, UK), supplemented with antibiotics (100 U/mL penicillin and 100 μg/mL streptomycin) (Sigma, St. Louis, MO, USA). The cell culture was performed in standard conditions, i.e., at 37 °C in a humidified atmosphere with 5% CO2. The CCD 841 CoTr cell line (ATCC no. CRL-1807) (human normal colon epithelium) was cultivated in RPMI 1640 +DMEM (1:1) medium (Sigma, St. Louis, MO, USA) with 10% FCS and the addition of antibiotics. The culture was carried out at 34 °C in a 5% CO2/95% air atmosphere.
After seeding (1 × 10^5 cells/mL) in a 96-well plate, the cells were incubated for 24 h. Thereafter, the tested compounds (100 μL) at a concentration range of 0–200 μg/mL in the culture medium were added to the wells (100 μL). The incubation lasted for 24 h. After that time, the culture medium was removed and a 0.4% Neutral Red solution in the culture medium was added to each well. The incubation was continued for another 3 h. After the incubation, the medium with the NR dye was discarded, and 4% paraformaldehyde in 1% CaCl2 was added for cell fixation (200 μL) and incubated for 3 min. Intracellular dye deposits were solubilized using 1% […] in a 50% ethanol solution (100 μL). The plates were then gently shaken (20 min.) at room temperature to dissolve and release the dye from the cells. Finally, spectrophotometric measurement was performed at 540 nm using an EL800 Universal Microplate Reader (BioTek Instruments, Winooski, VT, USA).

[2] = system: HT29 cells; assay: Flow cytometry annexin V-FITC/PI, cell death types in HT29 cells; format: cell-based, human; settings: HT29, 25 μg/mL, 24 h; for viability at 25 µg/mL: Homo sapiens, HT-29, read-out: Percentage of viable cells
Protocol: (§2) In a further flow cytometric study measuring normal and tumor cell death types, the cells were exposed to the cannabinoids at a concentration of 25 μg/mL for 24 h.
(§3) The annexin V-fluorescein isothiocyanate (FITC)/propidium iodide (PI) apoptosis kit (BD Biosciences, BD Pharmingen™, San Jose, CA, USA) was used for the quantitative analysis of cannabinoid-induced cell death.
(§4) For the analyses, both adhered (after detaching the cells with 10 mM EDTA in PBS w/o Ca^2+ and Mg^2+ ions solution) and floating cells were collected after 24 h of incubation with the tested cannabinoids. After collection, the cells were gently centrifuged (1000 rpm/5 min.). Next, the supernatant was discarded, and the cell pellet was suspended in warm PBS w/o Ca^2+ and Mg^2+ ions and incubated for 5 min. at room temperature. The centrifugation procedure was repeated again and, following the manufacturer’s procedure, the cells were suspended in 100 μL of 1X Annexin V Binding Buffer with 5 μL of FITC Annexin V […] and 5 μL of propidium iodide (PI) (5 mM). The preparation was gently vortexed and incubated at room temperature for 15 min. in the dark. After that time, the cells were subjected to cytometric analysis. Before dosing the cells into the cytometer, 400 μL of 1X Binding Buffer was added. The cells were analyzed using a flow cytometer (BD FACSCalibur) with CellQuest Pro Version 6.0 software within 1 h after the staining was completed.

[3] = system: CCD 841 CoTr cells; assay: MTT assay, metabolic activity of CCD 841 CoTr cells; format: cell-based, human; settings: for IC50: Homo sapiens, CCD-841, 24 h, read-out: IC50 Values (MTT method)
Protocol: as §1
(§5) After seeding (1 × 10^5 cells/mL) in a 96-well plate, the cells were incubated for 24 h. Thereafter, the tested compounds (100 μL) at a concentration range of 0–200 μg/mL in the culture medium were added to the wells (100 μL). The incubation lasted for 24 h. After that time, an MTT solution (5 mg/mL, 25 μL/well) was added to each well. The incubation was continued for another 3 h. After the incubation, 10% sodium dodecyl sulfate (SDS) in 0.01 M HCl (100 μL) was added in order to dissolve the purple formazan crystals. Solubilization was carried out overnight. Finally, spectrophotometric measurement was performed at 570 nm using an EL800 Universal Microplate Reader (BioTek Instruments, Winooski, VT, USA).

[4] = system: HT29 cells; assay: MTT assay, metabolic activity of HT29 cells; format: cell-based; settings: Homo sapiens, HT-29; HT29 colon tumor cells, 24 h incubation; read-out: IC50 Values (MTT method)
Protocol: as §1, §5

[5] = Flow cytometry annexin V-FITC/PI, cell death types in CCD 841 CoTr cells; format: cell-based, human; settings: human, CCD 841 CoTr cells (normal cells), read-out: Percentage of viable cells
Protocol: as §2, §3, §4

[6] = system: CCD 841 CoTr cells; assay: as above; format: cell-based, human; settings: 25 μg/mL, 24 h
Protocol: as §2, §3, §4

[7] = DPPH free radical scavenging test
Protocol: The DPPH biochemical test is used to determine the antioxidant potential of tested compounds. This method is based on the ability of compounds to reduce the stable dark purple 2,2-diphenyl-1-picrylhydrazyl radical (DPPH) to yellow diphenyl-picrylhydrazine. The following concentrations of the tested cannabinoids were prepared: 25, 100, and 200 μg/mL in pure ethanol. Next, the DPPH solution (0.2 mg/mL in ethanol) was prepared. As a quantitative standard, Trolox in increasing concentrations (1–50 μg/mL) was prepared in ethanol. The procedure was carried out as follows: 100 µL of the specified concentrations of the tested cannabinoids or standard points were added to the wells of a 96-well plate in eight replicates. Next, 100 μL of a DPPH solution was added to 100 μL of each sample or standard in a 96-well plate. Subsequently, 20 min. incubation at room temperature was carried out, and spectrophotometric reading was performed at 515 nm using an EL800 Universal Microplate Reader (BioTek Instruments, Winooski, VT, USA). Decreasing absorbance meant increasing antioxidant activity of the preparations. The final value of the free radical scavenging activity of the cannabinoids was calculated based on the standard curve and the following formula:DPPH scavenging effect (%) = [(Xcontrol − Xcompound/Xcontrol) × 100]
Xcontrol is the absorbance of the control, and Xcompound is the absorbance in the presence of cannabinoids

[8] = CCD 841 CoTr colon normal cells, 24 h incubation
[9] = cannabinoid concentration 25 μg/mL
[10] = cannabinoid concentration 100 μg/mL
[11] = cannabinoid concentration 200 μg/mL

Compound | IC50 [1] [µg/mL] | Cells in late apoptosis, more than in the control [2] [%] | Cells in necrosis, more than in the control [2] [%] | Percentage of cells in early apoptosis [2] [%] | Percentage of cells in late apoptosis [2] [%] | Percentage of cells in necrosis [2] [%] | Reduction in the number of viable cells compared to the control [2] [%] | viability at 25 µg/mL [2] [%] | IC50 [3, 8] [µg/mL] | IC50 [4] [µg/mL] | viability at 24 h, 25 μg/mL [5] [%] | Percentage of cells in early apoptosis [6] [%] | Percentage of cells in late apoptosis [6] [%] | Percentage of cells in necrosis [6] [%] | Reduction in the number of viable normal cells compared to the control [6] | Reduction Value Corresponding to the Trolox Concentration (DPPH) [7, 9] | Reduction Value Corresponding to the Trolox Concentration (DPPH) [7, 10] [µg/mL] | Reduction Value Corresponding to the Trolox Concentration (DPPH) [7, 11] | further results
CCCCCc1cc2c3c(c1)OC(C)(C)C1CCC(C)(CC31)O2 (centres unmarked) [CBT, cannabicitran] | 44.5 (≈ 141 µM) | 49.2 | 3.24 | 0.91 ± 0.16 | 52.23 ± 1.26 | 3.96 ± 0.40 | 52.25 | 42.9 ± 0.96 | 55.5 (≈ 177 µM) | 69.1 (≈ 220 µM) | 87.3 ± 2.11 | 2.90 ± 0.74 | 8.72 ± 1.91 | 1.08 ± 0.56 | 5.02% | 0.280 µg/mL and 0.280 ± 0.190 µg/mL | 0.487 ± 0.104 | 0.593 µg/mL and 0.593 ± 0.278 µg/mL | Cells in late apoptosis, more than in the control [6]: 3.12%
CCCCCc1cc(O)cc(O)c1C/C=C(\C)CCC=C(C)C [abn-CBG, abnormal cannabigerol] | 14.1 (≈ 44.6 µM) | 68.83 | 19.03 | 3.65 ± 0.65 | 71.86 ± 2.36 | 19.75 ± 2.50 | 90.42 | 4.74 ± 0.39 | 15.3 (≈ 48.5 µM) | 19.6 (≈ 62 µM) | 25.5 ± 1.2 | 8.57 ± 1.67 | 18.36 ± 3.62 | 47.55 ± 4.12 | 66.79% | 0.074 ± 0.056 µg/mL | 0.216 ± 0.133 | 0.264 ± 0.198 µg/mL | Reduction of the metabolism of normal cells (MTT) ([3]; CCD 841 CoTr, 25 μg/mL, 24 h): over 81%; Cells in necrosis, more than in the control [6]: 47.27%; Early and late apoptosis together, dying cells compared to the control [6]: 19.52%
CCCCCc1cc(O)c2c(c1)OC(C)(CCC=C(C)C)C=C2 (centres unmarked) [CBC, cannabichromene] | 151 (≈ 480 µM) | – | – | 1.36 ± 0.18 | 6.84 ± 0.71 | 1.18 ± 0.39 | 7.13 | 88 ± 2.34 | 75.2 (≈ 239 µM) | 176 (≈ 560 µM) | 91.4 ± 1.19 | 2.51 ± 0.54 | 5.58 ± 1.02 | 0.54 ± 0.39 | did not significantly affect | 0 µg/mL | 0 | 0.487 ± 0.341 µg/mL | IC50 Values (MTT method) [3, 8]: 75.29 µg/mL (≈ 239 µM); Stimulation of cell metabolism compared to the control (MTT) ([3]; CCD 841 CoTr, lowest concentration, 24 h): over 4%; Activity in reducing the free oxygen radical DPPH (in words) ([7]; lower concentrations (<100 μg/mL)): did not express any activity
